In patent US8143301B2, “Hepatitis C virus inhibitors” (Bristol Myers Squibb Company, priority 2009, dated 2012):
Like-named read-outs stand apart in the source and are kept apart here.

System: HCV 1b genotype
Assay: HCV Replicon assay, 1b genotype
Format: cell-based
Conditions: Hepatitis C virus, HCV 1b genotype replicon
Procedure: An HCV Replicon assay was utilized in the present disclosure, and was prepared, conducted and validated as described in commonly owned PCT/US2006/022197 and in O'Boyle et. al. Antimicrob Agents Chemother. 2005 April; 49(4):1346-53. Assay methods incorporating luciferase reporters have also been used as described (Apath.com).
HCV-neo replicon cells and replicon cells containing mutations in the NS5A region were used to test the currently described family of compounds. The compounds were determined to have more than 10-fold less inhibitory activity on cells containing mutations than wild-type cells. Thus, the compounds of the present disclosure can be effective in inhibiting the function of the HCV NS5A protein and are understood to be as effective in combinations as previously described in application PCT/US2006/022197 and commonly owned WO/O4014852. Further, the compounds of the present disclosure can be effective against the HCV 1b genotype. It should also be understood that the compounds of the present disclosure can inhibit multiple genotypes of HCV. […] In one embodiment, compounds of the present disclosure are inhibitory versus 1a, 1b, 2a, 2b, 3a, 4a, and 5a genotypes.

Row | SMILES | EC50 (read-out: 1b EC50) | EC50 (read-out: 1b EC50 in Range)
1 | COC(=O)N[C@H](C(=O)N1[C@H](c2ncc(-c3ccc(C#Cc4ccc(-c5cnc([C@@H]6CCN(C)N6C(=O)[C@@H](NC(=O)OC)C(C)C)[nH]5)cc4)cc3)[nH]2)CCN1C)C(C)C [Example 8, methyl ((1S)-1-(((5S)-5-(5-(4-((4-(2-((3S)-2-((2S)-2-((methoxycarbonyl)amino)-3-methylbutanoyl)-1-methyl-3-pyrazolidinyl)-1H-imidazol-5-yl)phenyl)ethynyl)phenyl)-1H-imidazol-2-yl)-2-methyl-1-pyrazolidinyl)carbonyl)-2-methylpropyl)carbamate] | 0.2 nM | 0.101 to 0.999 nM
2 | COC(=O)N[C@H](C(=O)N1CCCN1c1nc(-c2ccc(-c3ccc(-c4c[nH]c(N5CCCN5C(=O)[C@@H](NC(=O)OC)C(C)C)n4)cc3)cc2)c[nH]1)C(C)C [Example 11, methyl ((1S)-1-((2-(4-(4′-(2-(2-((2S)-2-((methoxycarbonyl)amino)-3-methylbutanoyl)-1-pyrazolidinyl)-1H-imidazol-4-yl)-4-biphenylyl)-1H-imidazol-2-yl)-1-pyrazolidinyl)carbonyl)-2-methylpropyl)carbamate] | < 13.7 nM | 1 to 99 nM
3 | O=C(OCc1ccccc1)N1CCCN1c1nc(-c2ccc(-c3ccc(-c4c[nH]c(N5CCCN5C(=O)OCc5ccccc5)n4)cc3)cc2)c[nH]1 [Example 10, dibenzyl 2,2′-(4,4′-biphenyldiylbis(1H-imidazole-4,2-diyl))di(1-pyrazolidinecarboxylate)] | – | 1 to 99 nM
4 | COC(=O)N[C@H](C(=O)N1[C@H](c2ncc(-c3ccc(-c4ccc(-c5cnc([C@@H]6CCN(C)N6C(=O)[C@@H](NC(=O)OC)C(C)C)[nH]5)cc4)cc3)[nH]2)CCN1C)C(C)C [Example 1, methyl ((1S)-1-(((5S)-5-(5-(4′-(2-((3S)-2-((2S)-2-((methoxycarbonyl)amino)-3-methylbutanoyl)-1-methyl-3-pyrazolidinyl)-1H-imidazol-5-yl)-4-biphenylyl)-1H-imidazol-2-yl)-2-methyl-1-pyrazolidinyl)carbonyl)-2-methylpropyl)carbamate] | 0.003 nM | –
5 | COC(=O)N[C@@H](C(=O)N1CCCN1c1nc(-c2ccc(-c3ccc(-c4c[nH]c(N5CCCN5C(=O)[C@H](NC(=O)OC)c5ccccc5)n4)cc3)cc2)c[nH]1)c1ccccc1 [Example 12, dimethyl (4,4′-biphenyldiylbis(1H-imidazole-4,2-diyl-2,1-pyrazolidinediyl((1R)-2-oxo-1-phenyl-2,1-ethanediyl)))biscarbamate] | – | 0.101 to 0.999 nM
